Test results: patent publication US20220409629A1, “BENZODIAZEPINE DERIVATIVES FOR TREATING A RESPIRATORY SYNCYTIAL VIRUS (RSV) INFECTION” (priority 2019, published 2022)
pEC50: −log10 of the molar value.

How the values were obtained:
[1] = Rat pharmacokinetics in vivo; conditions: male Sprague Dawley rats; for C 8 h / Cmax: doses 1 mg/kg (IV) and 10 mg/kg (PO); for Vd / clearance / bioavailability / half-life / AUC(0-t) / Cmax: rat, in vivo; for AUC(0-t): read-out: PO AUClast
Method: The pharmacokinetics of compounds were studied in vivo in rats at doses of 1 mg/kg (IV) and 10 mg/kg (PO).
Male rats (Sprague Dawley) surgically prepared with a jugular vein cannula were treated with experimental compounds via intravenous administration (IV; n=3; 1 mg/kg) or oral administration (PO; n=3; 10 mg/kg). Compounds were formulated as a solution in 40:60 dimethylacetamide:saline (IV administration), a suspension in 1% methyl cellulose (viscosity: 15 cP), 0.1% Tween80 in water (PO administration: Example 3), a solution in 10% DMSO/10% Cremaphor/80% water (PO administration: Examples 4, 11, 21, 23, 25, 26, 32) or a solution in 10% DMSO/20% Cremaphor/70% water (PO administration: Examples 19, 20, 22, 24, 30). […] Serial blood samples were collected via the cannula at 0.02, 0.08, 0.25, 0.5, 1, 2, 4, 6, 8 and 24 h post IV dosing of compound, and at 0.08, 0.25, 0.5, 1, 2, 4, 6, 8 and 24 h post oral dosing of compound, and plasma was prepared by centrifugation and stored immediately at −80° C. Samples were subsequently thawed, prepared for analysis by protein precipitation with acetonitrile, and analysed by tandem LCMS using electrospray ionisation using a matrix-matched calibration curve. PK parameters were calculated from the resulting data.

[2] = Liver microsomal stability, human; assay type: in vitro ADME; conditions: pH 7.4; human liver microsomes, 0.5 mg/mL protein, 1 μM compound, NADPH; >80% remaining at 45 min denoted >140; read-out: Liver Microsomal Stability: t1/2 (min); human
Outline: (§1)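 Pooled liver microsomes (0.5 mg/mL protein) in 0.1 M phosphate pH 7.4 with 1 μM compound (0.25% DMSO), started with 1 mM NADPH at 37° C; sampled 0-45 min, minus-NADPH control 45 min. LC-MS/MS depletion slope gave t1/2 and CLint.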

[3] = Cell cytotoxicity CC50; assay type: cell-based; conditions: human; mean of at least two experiments
[4] = Liver hepatocyte stability, human; assay type: in vitro ADME; conditions: human hepatocytes, 3 μM compound, 60 min, >80% remaining at 60 min denoted >186, read-out: Liver Hepatocyte Stability: t1/2 (min)
Method: (§2) Cryopreserved pooled hepatocytes were purchased from a reputable commercial supplier and stored in liquid nitrogen prior to use. Williams E media supplemented with 2 mM L-glutamine and 25 mM HEPES and test compound (final substrate concentration 3 μM; final DMSO concentration 0.25%) are pre-incubated at 37° C. prior to the addition of a suspension of cryopreserved hepatocytes (final cell density 0.5×10^6 viable cells/mL in Williams E media supplemented with 2 mM L-glutamine and 25 mM HEPES) to initiate the reaction. The final incubation volume is 500 μL. Two control compounds were included with each species, alongside appropriate vehicle control. The reactions are stopped by transferring 50 μL of incubate to 100 μL acetonitrile containing internal standard at the appropriate time points. Samples were removed at 6 time points (0, 5, 15, 30, 45 and 60 min) over the course of a 60 min experiment. The termination plates are centrifuged at 2500 rpm at 4° C. for 30 min to precipitate the protein. Following protein precipitation, the sample supernatants were combined in cassettes of up to 4 compounds and analysed using generic LC-MS/MS conditions. From a plot of ln peak area ratio (compound peak area/internal standard peak area) against time, the gradient of the line is determined. Subsequently, half-life (t1/2) and intrinsic clearance (CLint) were calculated.

[5] = Liver hepatocyte stability, dog; assay type: in vitro ADME; conditions: dog hepatocytes, 3 μM compound, 60 min, >80% remaining at 60 min denoted >186, read-out: Liver Hepatocyte Stability: t1/2 (min)
Method: as §2

[6] = Liver hepatocyte stability, rat; assay type: in vitro ADME; conditions: rat hepatocytes, 3 μM compound, 60 min, >80% remaining at 60 min denoted >186, read-out: Liver Hepatocyte Stability: t1/2 (min)
Method: as §2

[7] = test system: RSV A2; test: RSV plaque reduction assay; assay type: cell-based, respiratory syncytial virus (RSV); conditions: human respiratory syncytial virus, HepG2; Hep-G2 cells, RSV A2, mean of at least two experiments
Outline: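 RSV A2 (100 PFU/well) premixed with eight serial compound dilutions, added to confluent Hep-G2 monolayers for 2 h at 37° C, then held 2 days under CMC overlay containing compound (DMEM, 2% FBS). Plaques immunostained (HRP/TrueBlue) and counted; EC50 is 50% reduction versus virus control from 4-parameter fit, mean of ≥2 experiments.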

[8] = Liver microsomal stability, dog; assay type: in vitro ADME; conditions: pH 7.4; dog liver microsomes, 0.5 mg/mL protein, 1 μM compound, NADPH; >80% remaining at 45 min denoted >140; read-out: Liver Microsomal Stability: t1/2 (min); dog
Outline: as §1

[9] = Liver microsomal stability, rat; assay type: in vitro ADME; conditions: pH 7.4; rat liver microsomes, 0.5 mg/mL protein, 1 μM compound, NADPH; >80% remaining at 45 min denoted >140; read-out: Liver Microsomal Stability: t1/2 (min); rat
Outline: as §1

[10] = IV 1 mg/kg, read-out: IV t½ (converted)
[11] = PO 10 mg/kg, read-out: PO t½ (converted)

| SMILES | C 8 h [1] | Vd ([1]; IV 1 mg/kg) | clearance ([1]; IV 1 mg/kg) | bioavailability ([1]; IV 1 mg/kg, PO 10 mg/kg) | half-life [1, 10] | AUC(0-t) ([1]; PO 10 mg/kg) | half-life [1, 11] | Cmax [1] | half-life [2] | CC50 [3] | half-life [4] | half-life [5] | half-life [6] | pEC50 [7] | half-life [8] | half-life [9] |
| --- | --- | --- | --- | --- | --- | --- | --- | --- | --- | --- | --- | --- | --- | --- | --- | --- |
| CCn1ncc(C(=O)N[C@H]2N=C(c3ccccc3)c3cccc(F)c3NC2=O)c1-c1ccc(NC2CC2)nc1F [Example 11, 5-[6-(Cyclopropylamino)-2-fluoropyridin-3-yl]-1-ethyl-N-[(3S)-9-fluoro-2-oxo-5-phenyl-1,3-dihydro-1,4-benzodiazepin-3-yl]pyrazole-4-carboxamide] | 673 ng/mL | 2 L/kg | 13.9 mL/min/kg | 93% | 3.2 h | 11200 ng·h/mL | 2.2 h | 984 ng/mL | 82.4 min | > 25000 nM | 194 min | 48.2 min | 151 min | 7.21 | 24 min | 76.3 min |
| O=C(N[C@H]1N=C(c2ccccc2)c2cccc(F)c2NC1=O)c1cnn(C2COC2)c1-c1ccc(NC2CC2)nc1F [Example 19, 5-[6-(Cyclopropylamino)-2-fluoropyridin-3-yl]-1-(oxetan-3-yl)-N-[(3S)-9-fluoro-2-oxo-5-phenyl-1,3-dihydro-1,4-benzodiazepin-3-yl]pyrazole-4-carboxamide] | 315 ng/mL | 1.6 L/kg | 14.3 mL/min/kg | 64.6% | 1.7 h | 7290 ng·h/mL | 3 h | 1320 ng/mL | 154 min | > 25000 nM | > 186 min | 72.2 min | 185 min | 7.43 | 90.8 min | > 140 min |
| O=C(N[C@H]1N=C(c2ccccc2)c2ccccc2NC1=O)c1cnn(C2CCOCC2)c1-c1ccc(NC2CC2)nc1F [Example 20, 5-[6-(Cyclopropylamino)-2-fluoropyridin-3-yl]-N-[(3S)-2-oxo-5-phenyl-1,3-dihydro-1,4-benzodiazepin-3-yl]-1-(oxan-4-yl)pyrazole-4-carboxamide] | 25.7 ng/mL | 2.9 L/kg | 32.9 mL/min/kg | 23.9% | 1.5 h | 1170 ng·h/mL | 1.4 h | 258 ng/mL | 83.1 min | > 25000 nM | 190 min | > 186 min | 115 min | 7.23 | 325 min | 116 min |
| CC(C)Nc1ccc(-c2c(C(=O)N[C@H]3N=C(c4ccccc4)c4ccccc4NC3=O)cnn2C2CCOCC2)c(F)n1 [Example 23, 5-[2-Fluoro-6-(propan-2-ylamino)pyridin-3-yl]-1-(oxan-4-yl)-N-[(3S)-2-oxo-5-phenyl-1,3-dihydro-1,4-benzodiazepin-3-yl]pyrazole-4-carboxamide] | 146 ng/mL | 1.7 L/kg | 12.2 mL/min/kg | 34.7% | 2.2 h | 4630 ng·h/mL | 3 h | 930 ng/mL | – | > 25000 nM | > 186 min | 127 min | 96.7 min | 7.30 | – | – |
| CCn1cc(C(=O)N[C@H]2N=C(c3ccccc3)c3ccccc3NC2=O)c(-c2ccc(NC3CC3)nc2F)n1 [Example 25, 3-[6-(Cyclopropylamino)-2-fluoropyridin-3-yl]-1-ethyl-N-[(3S)-2-oxo-5-phenyl-1,3-dihydro-1,4-benzodiazepin-3-yl]pyrazole-4-carboxamide] | 294 ng/mL | 0.9 L/kg | 15.9 mL/min/kg | 71.5% | 1.3 h | 7470 ng·h/mL | 2.7 h | 1150 ng/mL | 82.8 min | > 25000 nM | 506 min | 68.1 min | > 186 min | 7.31 | 17 min | 46.3 min |
| CCNc1ccc(-c2c(C(=O)N[C@H]3N=C(c4ccccc4)c4ccccc4NC3=O)cnn2C2CCOCC2)c(F)n1 [Example 42, 5-[6-(Ethylamino)-2-fluoropyridin-3-yl]-1-(oxan-4-yl)-N-[(3S)-2-oxo-5-phenyl-1,3-dihydro-1,4-benzodiazepin-3-yl]pyrazole-4-carboxamide] | – | – | – | – | – | – | – | – | 194 min | > 25000 nM | 421 min | 100 min | 72.3 min | 7.39 | 480 min | 85.8 min |
| CCc1ccc(-c2c(C(=O)N[C@H]3N=C(c4ccccc4)c4cccc(F)c4NC3=O)cnn2C2CCOCC2)c(F)n1 [Example 53, 5-(6-Ethyl-2-fluoropyridin-3-yl)-1-(oxan-4-yl)-N-[(3S)-9-fluoro-2-oxo-5-phenyl-1,3-dihydro-1,4-benzodiazepin-3-yl]pyrazole-4-carboxamide] | – | – | – | – | – | – | – | – | > 140 min | > 25000 nM | – | – | – | 7.14 | 183 min | 200 min |
| CCOc1nn(CC)c(-c2ccccc2F)c1C(=O)N[C@H]1N=C(c2ccccc2)c2cccc(F)c2NC1=O [Example 55, 3-Ethoxy-1-ethyl-N-[(3S)-9-fluoro-2-oxo-5-phenyl-1,3-dihydro-1,4-benzodiazepin-3-yl]-5-(2-fluorophenyl)pyrazole-4-carboxamide] | – | – | – | – | – | – | – | – | 41.3 min | > 25000 nM | – | – | – | 7.48 | 39 min | 26.5 min |
| CN1CCC(n2ncc(C(=O)N[C@H]3N=C(c4ccccc4)c4cccc(F)c4NC3=O)c2-c2ccc(NC3CC3)nc2F)CC1 [Example 57, 5-[6-(Cyclopropylamino)-2-fluoropyridin-3-yl]-N-[(3S)-9-fluoro-2-oxo-5-phenyl-1,3-dihydro-1,4-benzodiazepin-3-yl]-1-(1-methylpiperidin-4-yl)pyrazole-4-carboxamide] | – | – | – | – | – | – | – | – | 84.7 min | > 9410 nM | – | – | – | 7.08 | 175 min | 116 min |
